Measured values as given in patent US20020137901A1, “Synthesis, and photodynamic therapy-mediated anti-cancer, and other uses of chlorin e6-transferrin” (priority 2001, published 2002).
Values belong to the substance of their own block, whether it stands above or below them.

Key:
[1] = system: Rat MTLn3 mammary adenocarcinoma cells; assay: Low serum growth assay; format: cell-based; conditions: αMEM 0.3% FBS, increasing levels of protein, four days
Method: FIG. 2. Effect of chorin e6 on the growth of Rat MTLn3 mammary adenocarcinoma cells. Cells were plated at 2,000 cells/well in 96 well plates in ∝MEM containing 5% FBS. One day after plating, media was changed to ∝MEM containing 0.3% FBS. Increasing levels of human holo-Tf (Native Tf) or human Ce6-Tf (both in PBS) were added to respective wells, in the amount indicated. Four days later, cells were quantitated using a crystal violet stain assay, where A590 correlates with cell number. A: an image of the crystal violet stained plate used in the assay is shown. B: A plot of the absorbances from A. Cell number and is seen to rise as the cells are exposed to increasing levels of native human Tf.
Growth assays: Rat MTLn3 mammary adenocarcinoma cells were plated at 2,000 cells/well in 96 well plates in ∝MEM containing 5% FBS. One day after plating, media was changed to ∝MEM containing 0.3% FBS. Increasing levels of human holo-Tf or human Ce6-Tf (both in PBS) were added to respective wells. Four days later, cells were quantitated using a crystal violet stain assay.

[2] = molecular target: T1, transferrin receptor (Rattus norvegicus, UniProt Q99376); assay: Competition of FITC-Tf binding to cell surfaces (Western blot detection); conditions: competitor 1 mg/ml, FITC-Tf 100 μg/ml, 4° C., 2 h
T1 construct: endogenous in cells; host or cells: Rat MTLn3 mammary adenocarcinoma cells (intact monolayers at 4 °C)
Method: FIG. 4. Competition of FITC-Tf binding to cell surfaces by Ce6-Tf. Transferrin solvent, human Ce6-Tf, or native human Tf were added to Rat MTLn3 mammary adenocarcinoma cell monolayers equilibrated to 4° C. The final concentration of both transferrins was 1 mg/ml. FITC- human Tf was then added to all wells at 100 μg/ml. After a 2 h incubation, cells were washed, lysed, electrophoresed, blotted, and examined for FITC content by incubation with anti-FITC and an HRP-conjugated second antibody, followed by ECL. A strong band at 70,000 Kd was seen from cell lysates which received FITC-Tf only (lanes 4 and 5), indicating FITC-Tf binding to the cells. […] Lanes 1-3 were loaded with known amounts of pure FITC-Tf, for standardization. An image of the ECL X-ray film is shown.
Competition binding: This measures the ability of a material to inhibit the binding of FITC-transferrin to cell surfaces. FITC-Tf bound to the cells is detected by Western blotting of cell lysates and specific antibody-based detection of FITC in those. Rat MTLn3 mammary adenocarcinoma cells were grown to confluence in 12 well plates using media consisting of ocMM containing 5% v/v fetal bovine serun (FBS). […] Lysate protein was determined using the BCA assay (Pierce Chemical). […] The blot was blocked and FITC-TF was detected by treatment with rabbit anti-FITC then with anti-rabbit IG-HRP followed by ECL using an HRP substrate.

[3] = system: MTLn3 cells; assay: Cell killing assay, protocol B (serum-containing, one-day exposure); format: cell-based, rat
Method: (§1) FIG. 6. […] This was a one-day exposure, serum-containing assay performed using protocol B described in the cell killing section. Cells were plated in 24 well plates and grown to confluency. On day one, media was changed and increasing levels of Ce6-Tf were added to test wells to a final concentration from 7.5 to 30 ug/ml. Native Tf was added to control wells at 30 ug/ml. On day 2, media was changed to that without added Ce6-Tf or Tf. On days 2, 3, and 4, cells were exposed to light from an X-ray film box for 15 min. Media was changed each day. On day five, all cells were fixed, stained, and quantitated using the crystal violet stain assay. Stained cell numbers were evaluated using a Bio-Rad Multi-imager. Images of the stained plates are shown in A and B. The results of image analysis are shown in C and D, where ODU/mm2 correlates with cell number.
(§2) FIG. 8. A: Effect of Ce6 alone on the viability of Rat MTLn3 cells. Cells were tested as per method B outlined in the cell killing procedure description. Confluent cells in ∝MEM containing 5% FBS were exposed to the indicated concentrations of Ce6, Ce6-Tf, or Tf alone. One day later, media was changed to that without added Ce6-Tf or Tf, and all cells were exposed to light for 15 min. This was repeated on days two and three. Cells were then fixed and stained with Coomassie blue. An image of the stained wells is shown. […] B: Effect of excess Tf on the killing effect of Ce6-Tf Cells were set up similarly as above, except that treatments consisted of Ce6-Tf, or Ce6-Tf in conjunction with 500 or 1,000 μg/ml native Tf. Light exposure, media changes, and cell staining were carried out as in A. An image of the stained wells is shown.
(§3) B: Serum-containing, one day exposure assays. For these, serum was maintained, to emulate in vivo conditions where excess endogenous normal transferrin would be present. In addition, the Ce6-Tf exposure was limited to I day to emulate a one time Ce6-Tf injection. Target cells were grown to confluence in 24 well plates. On the day of the assay, media in all wells was replaced with 1 ml of fresh serum-containing media and increasing levels of Ce6-Tf added to test wells. Native human holo-Tf was added, at the highest Ce6-Tf dose, to control wells. One day after Tf addition, media in all plates was changed to normal culture media (without Ce6Tf).
With both assay methods, two plates for each line to be tested were plated and treated identically. One day after Ce6-Tf addition, test plates were exposed to the light from an X-ray film box for 15 min.: the box was placed horizontally and the culture plates placed directly on the cover glass. The parallel plate from a given line was kept in the dark. The light treatment was repeated for 3 days. Media was changed (with [A] or without [B] added Ce6-Tf ) each day, to maintain cell viability. On the fourth day, the cells were quantitated using a crystal violet stain assay: wells were drained and washed 4 times with 2 ml PBS; cells were fixed with 1 ml 5% v/v glutaraldehyde (in PBS) at 25° C. for 20 min.; wells were washed 4 times with 2 ml distilled water and stained with 1 ml of a 1:1 (v:v) mixture of 0.2% (w/v) crystal violet and 100 mM CAPS (pH 9.0). Wells were drained and washed 4 times with 2 ml distilled water. After drying, cell density was determined using a Bio-Rad Multiimager, where ODU/mm2 correlates with cell number.
Effect of Ce6 alone: To determine if Ce6 alone, if added in appropriate concentrations, would induce cell death. […]

[4] = system: Rat MTLn3 mammary adenocarcinoma cells; assay: Cell killing assay, protocol A (serum-free, continuous exposure); format: cell-based; conditions: 1.25 to 5.0 μg/ml
Method: FIG. 5. […] This was a continuous exposure, serum-free assay performed using protocol A described in the cell killing section. Cells were plated in 24 well plates and grown to confluency in ∝MEM containing 5% v/v FBS. On day one, media was changed to ∝MEM only and increasing levels of Ce6-Tf were added to test wells to a final concentration from 1.25 to 5.0 μg/ml. Native Tf was added to control wells at 5.0 μg/ml. On days 2, 3, and 4, cells were exposed to light from an X-ray film box for 15 min. Media and all Tf was changed each day. On day five, all cells were quantitated using the crystal violet stain assay. Images of the stained plates are shown in A. Stained cell numbers were evaluated using a Bio-Rad Multi-imager. The results of image analysis are shown in B, where ODU/mm2 correlates with cell number. […]
(§4) With both assay methods, two plates for each line to be tested were plated and treated identically. […] On the fourth day, the cells were quantitated using a crystal violet stain assay: wells were drained and washed 4 times with 2 ml PBS; cells were fixed with 1 ml 5% v/v glutaraldehyde (in PBS) at 25° C. for 20 min.; wells were washed 4 times with 2 ml distilled water and stained with 1 ml of a 1:1 (v:v) mixture of 0.2% (w/v) crystal violet and 100 mM CAPS (pH 9.0). […] After drying, cell density was determined using a Bio-Rad Multiimager, where ODU/mm2 correlates with cell number.

[5] = system: NRK cells; assay: Cell killing assay, protocol B (serum-containing, one-day exposure); format: cell-based, rat
Method: as §1, §3, §4

[6] = system: Human MCF7 breast cancer cells; assay: as above; format: cell-based; conditions: MCF7, 7.5 to 30 ug/ml
Method: FIG. 7. […] Cells were plated in 24 well plates and grown to confluency. On day one, media was changed and increasing levels of Ce6-Tf were added to test wells to a final concentration from 7.5 to 30 ug/ml. Native Tf was added to control wells at 30 ug/ml. On day 2, media in all wells was changed to that without added Ce6-Tf or Tf On days 2, 3, and 4, cells were exposed to light from an X-ray film box for 15 min. Media was changed each day. On day five, all cells were fixed, stained, and quantitated using the crystal violet stain assay. Stained cell numbers were evaluated using a Bio-Rad Multi-imager. Images of the stained plates are shown in A. The results of image analysis are shown in B, where ODU/mm2 correlates with cell number. […]
as §4

[7] = system: MTLn3 cells; assay: Transferrin competition of cell killing; format: cell-based, rat; conditions: MTLn3, 30 ug/ml Ce6Tf plus 500 or 1,000 μg/ml native Tf, light
Method: as §2
Transferrin competition of cell killing: These were performed to ensure that Ce6-Tf's cell killing effect was due to the function of the transferrin ligand: that the light-induced killing effect could be neutralized with excess native Tf Method B. from above was used. Confluent cultures of MTLn3 cells in 24 well plates were treated with 30 ug/ml of Ce6Tf. […] Light-induced killing assays were continued and cells quantitated as stated above in method B.

T1 sequence (Q99376 whole entry): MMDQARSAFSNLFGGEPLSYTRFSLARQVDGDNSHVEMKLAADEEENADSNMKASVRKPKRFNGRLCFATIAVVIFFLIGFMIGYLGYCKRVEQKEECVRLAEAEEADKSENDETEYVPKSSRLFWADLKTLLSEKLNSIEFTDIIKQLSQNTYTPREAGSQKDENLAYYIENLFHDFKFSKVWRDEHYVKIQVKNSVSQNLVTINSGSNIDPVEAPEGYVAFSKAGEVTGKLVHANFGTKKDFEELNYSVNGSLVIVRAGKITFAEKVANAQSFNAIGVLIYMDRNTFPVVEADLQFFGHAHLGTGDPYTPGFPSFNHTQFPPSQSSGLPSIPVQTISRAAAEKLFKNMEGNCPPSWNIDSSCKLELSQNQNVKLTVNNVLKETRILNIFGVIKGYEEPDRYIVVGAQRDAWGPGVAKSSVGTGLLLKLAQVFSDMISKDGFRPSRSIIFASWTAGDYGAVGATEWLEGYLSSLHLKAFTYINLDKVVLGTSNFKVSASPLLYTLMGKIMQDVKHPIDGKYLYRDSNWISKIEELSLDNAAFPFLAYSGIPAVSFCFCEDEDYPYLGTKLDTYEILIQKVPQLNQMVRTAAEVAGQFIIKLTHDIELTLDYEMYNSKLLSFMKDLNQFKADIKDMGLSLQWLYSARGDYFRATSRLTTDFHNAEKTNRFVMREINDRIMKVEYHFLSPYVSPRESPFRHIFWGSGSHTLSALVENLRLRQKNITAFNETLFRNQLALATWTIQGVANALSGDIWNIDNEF

Competition of FITC-Tf binding to cell surfaces [2]: competed out the FITC-Tf
Substance: Native Tf: Un-conjugated iron-saturated human transferrin (Sigma Chemical), used as control
Effect on cell growth (cell number, crystal violet A590) [1]: seen to rise

Substance: chlorin e6 [Ce6, reference compound]
Cell killing effect of Ce6 alone with light ([3]; MTLn3, method B, free Ce6 4.3 uM (2.5 μg/ml), light 15 min on three days): no cell killing effect

Competition of FITC-Tf binding to cell surfaces [2]: competed out the FITC-Tf
Substance: chlorin e6-transferrin [Ce6-Tf]
Effect on cell growth (cell number, crystal violet A590) [1]: similar, albeit slightly lower rise
Cell killing with light exposure (cell number, ODU/mm2) ([4]; light 15 min on days 2, 3, 4): light-dependent killing
Cell numbers, plates kept in the dark ([4]; no light): no loss of cell numbers
Change in cell numbers at the 15 ug/ml dose with light ([3]; MTLn3, 15 ug/ml, light): showed a decrease in cell numbers
Cell numbers, plates maintained in the dark ([3]; MTLn3, 7.5 to 30 ug/ml, no light): no loss of cell numbers
Cell killing with light exposure (cell number, ODU/mm2) ([3]; MTLn3, 7.5 to 30 ug/ml, one-day exposure, light 15 min on days 2, 3, 4): light-dependent killing
Light-induced cell death ([3]; initially present at 0.43 uM (30 ug/ml)): very active
Change in cell numbers at the 15 ug/ml dose with light ([5]; 15 ug/ml, light): did not
Cell numbers, plates maintained in the dark ([5]; 7.5 to 30 ug/ml, no light): no loss of cell numbers
Cell killing with light exposure (cell number, ODU/mm2) ([5]; 7.5 to 30 ug/ml, one-day exposure, light 15 min on days 2, 3, 4): light-dependent killing
Cell numbers, plates kept in the dark ([6]; no light): no loss of cell numbers
Cell killing with light exposure (cell number, ODU/mm2) ([6]; one-day exposure, light 15 min on days 2, 3, 4): light-dependent killing
Killing effect of Ce6-Tf in presence of excess native Tf [7]: diminished the killing effect
